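Values below derive from 48-hour exposures of cells grown in 96-well plates, with endpoints linearly interpolated between the two concentrations bracketing the appropriate inhibition level. GI50: concentration for 50% inhibition of growth.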 Calls of active or inactive are those of the source. No stated cut-off is given here; in the data, active = GI50 up to about 1.1 µM and inactive = higher.
Experiments:
Assay in all cases: NCI-60 cell line screen, 48 h
MDA-MB-231 = tested on: MDA-MB-231
A549 = tested on: A549
OVCAR-4 = tested on: OVCAR-4
DU-145 = tested on: DU-145
HCC 2998 = tested on: HCC 2998
NCI-H522 = tested on: NCI-H522
COLO 205 = tested on: COLO 205
UO-31 = tested on: UO-31
UACC-62 = tested on: UACC-62
Hs-578T = tested on: Hs-578T
Malme-3M = tested on: Malme-3M
M14 = tested on: M14
OVCAR-8 = tested on: OVCAR-8
HCT-15 = tested on: HCT-15
SW-620 = tested on: SW-620
SK-MEL-2 = tested on: SK-MEL-2
TK-10 = tested on: TK-10
CAKI-1 = tested on: CAKI-1
HL-60 = tested on: HL-60
RXF 393 = tested on: RXF 393
UACC-257 = tested on: UACC-257
SF-268 = tested on: SF-268
SN12C = tested on: SN12C
PC-3 = tested on: PC-3
SNB-75 = tested on: SNB-75
HOP-62 = tested on: HOP-62
SR = tested on: SR
T47D = tested on: T47D
KM12 = tested on: KM12
OVCAR-3 = tested on: OVCAR-3
NCI-H23 = tested on: NCI-H23
MCF7 = tested on: MCF7
MOLT-4 = tested on: MOLT-4
NCI/ADR-RES = tested on: NCI/ADR-RES
OVCAR-5 = tested on: OVCAR-5
CCRF-CEM = tested on: CCRF-CEM
MDA-N = tested on: MDA-N
BT-549 = tested on: BT-549
ACHN = tested on: ACHN
HCT-116 = tested on: HCT-116
SNB-19 = tested on: SNB-19
NCI-H460 = tested on: NCI-H460
786-0 = tested on: 786-0
IGROV-1 = tested on: IGROV-1
SK-OV-3 = tested on: SK-OV-3
K562 = tested on: K562
SF-295 = tested on: SF-295
SK-MEL-5 = tested on: SK-MEL-5
LOX IMVI = tested on: LOX IMVI
EKVX = tested on: EKVX
MDA-MB-435 = tested on: MDA-MB-435
SF-539 = tested on: SF-539
HT-29 = tested on: HT-29
U-251 = tested on: U-251
NCI-H226 = tested on: NCI-H226
HOP-92 = tested on: HOP-92
RPMI-8226 = tested on: RPMI-8226
SK-MEL-28 = tested on: SK-MEL-28
A498 = tested on: A498

Measured: GI50

COc1ccc(CNc2nc3cc(C(F)(F)F)ccc3nc2-c2ccccc2)cc1OC
inactive: MDA-MB-231 53.8 µM | A549 26.9 µM | OVCAR-4 43.1 µM | DU-145 87.5 µM | HCC 2998 22.6 µM | NCI-H522 36.1 µM | COLO 205 35.1 µM | UO-31 23.7 µM | UACC-62 50.6 µM | Hs-578T 25.2 µM | Malme-3M 45.6 µM | M14 49.3 µM | OVCAR-8 54.6 µM | SW-620 18.5 µM | SK-MEL-2 68.9 µM | TK-10 53.2 µM | CAKI-1 18 µM | HL-60 34 µM | RXF 393 22.8 µM | UACC-257 28.4 µM | SF-268 62.8 µM | SN12C > 10 µM | PC-3 28.2 µM | SNB-75 37.3 µM | HOP-62 23.9 µM | SR 15.3 µM | T47D 24.3 µM | KM12 29.5 µM | OVCAR-3 96.8 µM | NCI-H23 20.8 µM | MCF7 16.1 µM | MOLT-4 25.5 µM | NCI/ADR-RES 54.5 µM | OVCAR-5 71.1 µM | CCRF-CEM 22.6 µM | MDA-N 37.2 µM | BT-549 47.5 µM | ACHN 23.8 µM | HCT-116 30.3 µM | SNB-19 > 100 µM | NCI-H460 19.5 µM | 786-0 33.4 µM | IGROV-1 66.7 µM | SK-OV-3 > 100 µM | K562 26.1 µM | SF-295 29.4 µM | SK-MEL-5 17.9 µM | LOX IMVI 24.7 µM | EKVX 18.7 µM | MDA-MB-435 25.5 µM | SF-539 45.9 µM | HT-29 21.1 µM
28.2 µM: HCT-15

CN1CCCC(OC(=O)c2cc3cc(CCl)ccc3oc2=O)C1 (configuration not stated)
19.2 µM: HCT-15
inactive: MDA-MB-231 21 µM | A549 29.8 µM | OVCAR-4 20.3 µM | DU-145 29.9 µM | HCC 2998 18.3 µM | NCI-H522 15.9 µM | COLO 205 17.2 µM | UO-31 15.8 µM | UACC-62 17.3 µM | Hs-578T 21.9 µM | Malme-3M 17.6 µM | M14 14.8 µM | OVCAR-8 28.8 µM | SW-620 22.7 µM | SK-MEL-2 17.6 µM | TK-10 18.9 µM | U-251 14.9 µM | CAKI-1 23.7 µM | NCI-H226 23.9 µM | HL-60 2.07 µM | HOP-92 15.7 µM | RXF 393 23.7 µM | UACC-257 18.1 µM | SF-268 21.7 µM | SN12C 20.9 µM | PC-3 18.3 µM | SNB-75 22.2 µM | HOP-62 25.8 µM | SR 21.9 µM | T47D 32.7 µM | KM12 24 µM | OVCAR-3 14.2 µM | NCI-H23 19.3 µM | MCF7 20.4 µM | MOLT-4 29.6 µM | NCI/ADR-RES 27.9 µM | OVCAR-5 21.6 µM | CCRF-CEM 19.1 µM | MDA-N 18.2 µM | BT-549 21 µM | ACHN 23.3 µM | HCT-116 19.2 µM | SNB-19 27.7 µM | NCI-H460 19.1 µM | 786-0 23.8 µM | IGROV-1 28.6 µM | SK-OV-3 35.2 µM | K562 27.9 µM | SF-295 25.2 µM | SK-MEL-5 17.3 µM | RPMI-8226 29.4 µM | SK-MEL-28 19.5 µM | LOX IMVI 17 µM | EKVX 31.2 µM | MDA-MB-435 18.9 µM | SF-539 27 µM | HT-29 19.5 µM

O=C1CCC2(CC1)Cc1ccccc1C2O (configuration not stated)
> 100 µM: HCT-15
active: SNB-75 < 0.01 µM
inactive: MDA-MB-231 > 100 µM | A549 > 100 µM | OVCAR-4 > 100 µM | DU-145 > 100 µM | HCC 2998 > 100 µM | NCI-H522 > 100 µM | COLO 205 > 100 µM | UO-31 > 100 µM | UACC-62 > 100 µM | Hs-578T > 100 µM | Malme-3M > 100 µM | M14 > 100 µM | OVCAR-8 > 100 µM | SW-620 > 100 µM | SK-MEL-2 > 100 µM | TK-10 > 100 µM | U-251 > 100 µM | CAKI-1 > 100 µM | NCI-H226 > 100 µM | HL-60 > 100 µM | UACC-257 > 100 µM | SF-268 > 100 µM | SN12C > 100 µM | PC-3 > 100 µM | HOP-62 > 100 µM | SR > 100 µM | T47D > 100 µM | KM12 > 100 µM | NCI-H23 > 100 µM | MCF7 > 100 µM | MOLT-4 > 100 µM | NCI/ADR-RES > 100 µM | OVCAR-5 > 100 µM | CCRF-CEM > 100 µM | MDA-N > 100 µM | BT-549 > 100 µM | ACHN > 100 µM | HCT-116 > 100 µM | SNB-19 > 100 µM | NCI-H460 > 100 µM | 786-0 > 100 µM | IGROV-1 > 100 µM | SK-OV-3 > 100 µM | K562 > 100 µM | SF-295 > 100 µM | SK-MEL-5 > 100 µM | SK-MEL-28 > 100 µM | LOX IMVI > 100 µM | EKVX > 100 µM | SF-539 > 100 µM | HT-29 > 100 µM

O=C1CC(/C=C/c2ccco2)=C(O)C1=O
inactive: MDA-MB-231 17.7 µM | A549 23.9 µM | OVCAR-4 14.2 µM | DU-145 16.2 µM | HCC 2998 17.9 µM | NCI-H522 12.2 µM | COLO 205 15.7 µM | UO-31 20.7 µM | UACC-62 15.3 µM | Hs-578T 16.7 µM | Malme-3M 11.6 µM | M14 14.8 µM | OVCAR-8 13.8 µM | SW-620 10.2 µM | SK-MEL-2 16.4 µM | TK-10 22.5 µM | U-251 13.6 µM | CAKI-1 14.6 µM | NCI-H226 22 µM | HL-60 33.7 µM | HOP-92 13.8 µM | RXF 393 9.59 µM | UACC-257 15.7 µM | SF-268 18.6 µM | SN12C 13.6 µM | PC-3 10.2 µM | SNB-75 16 µM | HOP-62 1.84 µM | SR 6.05 µM | T47D 14.2 µM | KM12 13.8 µM | OVCAR-3 13 µM | NCI-H23 11.6 µM | MCF7 7.01 µM | MOLT-4 14 µM | NCI/ADR-RES 24.2 µM | OVCAR-5 13.9 µM | CCRF-CEM 3 µM | MDA-N 12.3 µM | BT-549 8.49 µM | ACHN 15.9 µM | HCT-116 13.6 µM | SNB-19 14.8 µM | NCI-H460 17.6 µM | IGROV-1 10.7 µM | SK-OV-3 21.9 µM | K562 12.1 µM | SF-295 19.5 µM | SK-MEL-5 13.7 µM | RPMI-8226 13.2 µM | SK-MEL-28 28.8 µM | LOX IMVI 12.8 µM | EKVX 15.7 µM | MDA-MB-435 16.4 µM | SF-539 13.9 µM | HT-29 11.7 µM
13.5 µM: HCT-15

Cn1c(=O)c2c(no[n+]2[O-])n(C)c1=O
> 100 µM: HCT-15
inactive: MDA-MB-231 21.7 µM | A549 > 100 µM | OVCAR-4 59.8 µM | HCC 2998 > 100 µM | NCI-H522 16.1 µM | COLO 205 23 µM | UO-31 31 µM | UACC-62 19.5 µM | Hs-578T 22.6 µM | Malme-3M 18.5 µM | M14 > 100 µM | OVCAR-8 19.1 µM | SW-620 25.4 µM | SK-MEL-2 45 µM | TK-10 18.9 µM | U-251 22.6 µM | CAKI-1 19.3 µM | NCI-H226 18.2 µM | HOP-92 19.1 µM | A498 18.2 µM | RXF 393 27.7 µM | UACC-257 36.9 µM | SF-268 25.6 µM | SN12C 39.3 µM | PC-3 > 100 µM | SNB-75 49.7 µM | HOP-62 18.4 µM | SR > 100 µM | T47D > 100 µM | KM12 52 µM | OVCAR-3 > 100 µM | NCI-H23 22.4 µM | MCF7 > 100 µM | MOLT-4 > 100 µM | NCI/ADR-RES 22.9 µM | OVCAR-5 > 100 µM | CCRF-CEM > 100 µM | MDA-N 22.4 µM | BT-549 21.7 µM | ACHN > 100 µM | HCT-116 > 100 µM | SNB-19 22.3 µM | NCI-H460 > 100 µM | 786-0 23.8 µM | IGROV-1 22.2 µM | SK-OV-3 53.5 µM | K562 > 100 µM | SF-295 52.4 µM | SK-MEL-5 42.6 µM | RPMI-8226 > 100 µM | LOX IMVI > 100 µM | EKVX 28.4 µM | MDA-MB-435 20 µM | SF-539 63.2 µM | HT-29 31.2 µM

From ChEMBL document CHEMBL1201862, “PubChem BioAssay data set” (2004)
